Patent US11166924B2, “N-methyl-d-aspartate receptor allosteric modulators and methods for their use” (Qingdao Primedicine Pharmaceutical Company, Ltd., priority 2016, dated 2021)

Columns and labels:
GABAR = assay: GABA-induced currents in cultured hippocampal neurons; type: cell-based
Experimental: Whole cell patch-clamp recordings were performed under voltage-clamp mode using an Axopatch 200B or 1D patch-clamp amplifier (Molecular Devices). Whole-cell currents were recorded at a holding potential of −60 mV unless indicated elsewhere, and signals were filtered at 2 kHz, digitized at 10 kHz (Digidata 1322A). Recording pipettes (3-5 MΩ) were filled with the intracellular solution that contained (mM): CsCl 140, HEPES 10, Mg-ATP 4, QX-314 5, pH 7.20; osmolarity, 290-295 mOsm. BAPTA (10 mM) was added in the intracellular solution (otherwise specified). The coverslips were continuously superfused with the extracellular solution containing (mM): NaCl 140, KCl 5.4, HEPES 10, CaCl2 1.3, glucose 20, pH 7.4; osmolarity, 305-315 mOsm. NMDA, GABA or AMPA induced currents were either applied by NMDA, GABA, AMPA either through perfusion fast-step (Warner Instruments). […]
Next, the inventor evaluated the selectivity profile for Npam02 on two other key ionotropic receptors of the central nervous system (CNS): α-amino-3-hydroxy-5-methyl-4-isoxazolepropionic acid receptor AMPAR, which are known to be a non-NMDA type ionotropic transmembrane receptor for glutamate that mediates fast synaptic transmission in the central nervous system (CNS) and GABA receptors which are the principal inhibitory ligand-gated ion channel receptor. […]

GluN1/GluN2A^I176Y = molecular target: T1, GluN1/GluN2A^I176Y (Rattus norvegicus, UniProt P35439+Q00959, I176Y); assay: Patch clamp in HEK293 cells expressing mutant GluN1/GluN2A I176Y; type: cell-based
T1 construct: expressed in transfected cells; host or cells: HEK293
T1 sequence (Q00959 23-1464 I176Y, other chains not shown): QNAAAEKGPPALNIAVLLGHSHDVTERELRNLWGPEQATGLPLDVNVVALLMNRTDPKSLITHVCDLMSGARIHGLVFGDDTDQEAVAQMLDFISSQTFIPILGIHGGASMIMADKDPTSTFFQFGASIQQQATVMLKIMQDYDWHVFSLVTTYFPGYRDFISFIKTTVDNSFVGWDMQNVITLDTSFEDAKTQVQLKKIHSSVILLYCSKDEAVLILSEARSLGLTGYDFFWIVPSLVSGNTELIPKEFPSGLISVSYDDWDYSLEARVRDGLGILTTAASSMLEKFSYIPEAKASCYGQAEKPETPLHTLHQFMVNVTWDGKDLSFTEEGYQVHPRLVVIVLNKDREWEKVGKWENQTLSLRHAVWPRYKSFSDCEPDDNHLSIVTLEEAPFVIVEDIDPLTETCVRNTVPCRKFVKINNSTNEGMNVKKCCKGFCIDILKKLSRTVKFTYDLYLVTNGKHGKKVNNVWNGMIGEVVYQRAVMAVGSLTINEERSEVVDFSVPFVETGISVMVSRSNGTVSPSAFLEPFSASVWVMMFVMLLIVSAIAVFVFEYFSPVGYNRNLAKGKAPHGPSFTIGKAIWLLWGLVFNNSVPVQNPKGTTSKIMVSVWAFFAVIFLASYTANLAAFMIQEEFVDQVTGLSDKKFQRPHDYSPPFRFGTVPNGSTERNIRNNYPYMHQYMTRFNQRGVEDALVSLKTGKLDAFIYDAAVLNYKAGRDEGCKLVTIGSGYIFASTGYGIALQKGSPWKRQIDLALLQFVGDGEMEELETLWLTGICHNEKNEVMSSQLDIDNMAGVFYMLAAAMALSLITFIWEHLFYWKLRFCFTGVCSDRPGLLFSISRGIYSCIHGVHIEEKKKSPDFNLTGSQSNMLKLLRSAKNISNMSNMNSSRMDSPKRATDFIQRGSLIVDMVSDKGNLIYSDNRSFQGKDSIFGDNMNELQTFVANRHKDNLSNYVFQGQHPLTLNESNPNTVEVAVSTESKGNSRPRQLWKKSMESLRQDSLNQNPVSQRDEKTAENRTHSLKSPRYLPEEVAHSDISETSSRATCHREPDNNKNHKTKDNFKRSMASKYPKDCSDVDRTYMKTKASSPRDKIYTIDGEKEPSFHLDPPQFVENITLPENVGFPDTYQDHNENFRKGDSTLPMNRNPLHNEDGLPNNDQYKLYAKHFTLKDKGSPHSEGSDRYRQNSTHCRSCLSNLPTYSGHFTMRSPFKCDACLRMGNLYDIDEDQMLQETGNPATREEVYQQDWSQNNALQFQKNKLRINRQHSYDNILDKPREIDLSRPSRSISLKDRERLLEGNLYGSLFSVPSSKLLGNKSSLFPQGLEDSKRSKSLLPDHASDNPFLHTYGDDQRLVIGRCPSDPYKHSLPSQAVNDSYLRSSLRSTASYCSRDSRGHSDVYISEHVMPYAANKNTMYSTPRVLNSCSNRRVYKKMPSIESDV
Experimental: Whole cell patch-clamp recordings were performed under voltage-clamp mode using an Axopatch 200B or 1D patch-clamp amplifier (Molecular Devices). Whole-cell currents were recorded at a holding potential of −60 mV unless indicated elsewhere, and signals were filtered at 2 kHz, digitized at 10 kHz (Digidata 1322A). Recording pipettes (3-5 MΩ) were filled with intracellular solution containing (mM): CsCl 140, HEPES 10, Mg-ATP 4, QX-314 5, pH 7.20; osmolarity, 290-295 mOsm. BAPTA (10 mM) was added in the intracellular solution (unless otherwise specified). The coverslips were continuously superfused with extracellular solution containing (mM): NaCl 140, KCl 5.4, HEPES 10, CaCl2 1.3, glucose 20, pH 7.4; osmolarity, 305-315 mOsm. NMDA-induced currents were applied by NMDA through perfusion fast-step (Warner Instruments). With perfusion fast-step system, NMDA application was achieved by using a two-square barrel glass tubing and depending on the age of the cultured neurons, CNQX (10 μM), TTX (0.5 μM) or BIC (10 μM) were added in the extracellular solution to minimize the activation of ionotropic glutamate receptors and voltage-gated sodium channels, respectively. All experiments were performed at room temperature. Recordings from at least six HEK293 cells/neurons were performed for all active compounds. […]

COc1cccc(/C=N/NC(=O)c2ccccc2C)c1O [Npam02, (E)-N′-(2-hydroxy-3-methoxybenzylidene)-2-methylbenzohydrazide]
Effect on GABAR mediated currents (GABAR): no observable effects

CCOc1cc(Cl)c(Cl)c(/C=N/NC(=O)c2ccccc2Br)c1O [Npam43, (E)-2-bromo-N′-(2,3-dichloro-5-ethoxy-6-hydroxybenzylidene)benzohydrazide]
Relative potentiation (GluN1/GluN2A^I176Y; Table 3): 189 ± 3.8% | Net Difference potentiation (GluN1/GluN2A^I176Y; normalized to wild-type): −10.1 ± 0.12%
